{"source": "patent US8063151B2", "about": "“Methods for manufacturing copolymers having 1-methyl-2-methoxyethyl moieties and use of same” (Abbott Laboratories, priority 2006, dated 2011)", "origin": "cited, not measured here", "conditions": "comparison with ethanol"}
{"smiles": "COCC(C)O", "note": "(stereo not shown) [1-methoxy-2-propanol]", "values": [{"measurement": "toxicity compared with other solvents", "value": "in a range more similar to ethanol"}]}
